Results from US4001230A, “3-(5-Nitroimidazol-2-yl)pyrazolo[3,4-d]pyrimidine compounds” (Eli Lilly and Company, priority 1975, dated 1977).
≈ marks a conversion by molar mass, not a printed value. Where two headings read alike, the source gives them in different places.

Key:
[1] = test system: P. multocida; test: In vivo activity in drinking water for treatment of Pasteurella multocida infection in mice (LD50, protective index); parameters: species or system white female mice; conditions: observed 7 days
Description: A comparison of the in vivo activity of a novel compound of this invention and nitrofurazolidone (Furacin) when administered in drinking water for the treatment of Pasteurella multocida infection in mice was conducted. The novel compound of this invention used in this study was 4,5-di-hydro-4-imino-1-methyl-3-(1-methyl-5-nitroimidazol-2-yl)-5-(4-pyridylmethyl)-1H-pyrazolo[3,4-d]pyrimidine diphosphate, identified by its operating example No. 8k. The test was conducted in the following manner.
Twenty white female mice, each weighing about 15-20 g., were divided into four groups of five mice each, and the groups were each placed on water medication containing:
a. Compound 8k, 0.5 g./gal.
b. Compound 8k, 2.0 g./gal.
c. Nitrofurazolidone, 0.5 g./gal.
d. Nitrofurazolidone, 2.0 g./gal.
The groups receiving each treatment were challenged with 0.1 ml. each of a 10^-^4, 10^-^5, 10^-^6, or 10^-^7 dilution of a 16 to 20-hour broth culture of P. multocida. Untreated groups of mice were challenged with log10 dilutions of the same broth culture using 0.1 ml. of 10^-^4 through 10^-^9 dilutions. […] By subtracting the LD50 of each of the treated groups from that of the control group of mice, there was obtained a figure called the protective index.
In the table, column 1 sets forth the treatment; column 2, the LD50; and column 3 the log10 protection obtained.

[2] = test system: Aeromonas liquefaciens; test: In vitro activity against fish bacterial pathogen, standard tube dilution test (MIC); format: cell-based; conditions: Aeromonas hydrophila; Aeromonas liquefaciens; tryptose broth, overnight, about 37° C.; read-out: minimum inhibitory concentration (MIC)
Description: (§1) The in vitro activity of certain of the novel compounds of this invention against two fish bacterial pathogens was determined using tryptose broth and the standard tube dilution test system. Doubling dilutions ranging from 100.0 to 0.78 mcg./ml. of each of the test compounds were prepared in 5 ml. amounts of tryptose broth. Each tube in the series was then inoculated with one drop from a 24-hour broth culture of either Pseudomonas sp. or a strain of Aeromonas liquefaciens. The tubes were incubated overnight at about 37° C., and the minimum inhibitory concentration (MIC) determined and recorded.
(§2) Column 1 lists the test compounds identified by their operating example number; column 2 lists the MIC for Pseudomonas sp.; and column 3 lists the MIC for Aeromonas liquefaciens.

[3] = test system: Pseudomonas sp.; test: as above; format: cell-based; conditions: tryptose broth, overnight, about 37° C., read-out: minimum inhibitory concentration (MIC)
Description: as §1, §2

[4] = test system: Salmonella typhimurium; test: In vivo activity against Salmonella typhimurium in chicks, subcutaneous
[5] = test system: Pasteurella multocida; test: Efficacy against Pasteurella multocida infections in mice when administered by injection; format: in vivo, Female Swiss mice; conditions: for responders at 5 mg/kg / responders at 2.5 mg/kg / responders at 1.25 mg/kg: Pasteurella multocida, ip, read-out: Survival ratio (mice surviving / mice tested) (converted); for responders at 2.5 mg/kg: 2.5 mg./kg. intraperitoneal; for responders at 1.25 mg/kg: 1.25 mg./kg. intraperitoneal
Description: The efficacy of the novel compounds against Pasteurella multocida infections in mice when administered by injection was studied.
Female Swiss mice weighing from 15 to about 20 g. were used. The test compound, 5.0 mg., was weighed out and dissolved in 0.5 ml. of dimethyl sulfoxide, and this solution was added to 9.5 ml. of sodium carboxymethylcellulose suspension. Groups of five mice each were injected intraperitoneally with 0.1 ml. each of the above-prepared test composition. This preparation gave a test rate of 2.5 mg. per kilo of body weight of mouse. The compounds were tested at 1.25, 2.5, or 5.0 per kilogram of body weight of mouse, and the test preparations for the rates of 1.25 and 5.0 mg./kg. were prepared in a similar manner. Immediately after receiving the test compound, the mice were challenged using log10 dilutions of 10^-^4, 10^-^5 and 10^-^6,of a 16 to 20-hour tryptose broth culture of Pasteurella multocida at 0.1 ml. per mouse subcutaneously. Similar groups of nontreated control mice were also challenged, the challenge being administered subcutaneously. The groups of mice were observed daily for mortality and the total mortality in treated groups compared with that which occurred in the nonmedicated control groups. Each test compound is identified by the number of the example describing its preparation.
In the chart, column 1 lists the test compound; column 2, the dosage of test compound in mg./kg. of mouse body weight; column 3, the dilution of the challenge organism; and column 4, the ratio of the number of mice surviving the test at each dosage and challenge dilution to the number of mice tested at each dosage and challenge dilution, called the survival ratio.

[6] = test system: Trichomonas vaginalis; test: In vitro activity against Trichomonas vaginalis; format: cell-based
[7] = test system: Trichomonas vaginalis; test: In vivo activity against Trichomonas vaginalis
[8] = test system: Treponema hyodysenteriae; test: In vitro activity against Treponema hyodysenteriae on blood agar plates (MIC); format: cell-based
Description: A number of representative compounds, namely, 5b, 8, and 15b, were tested for their in vitro activity against Treponema hyodysenteriae. The treponema were propagated on blood agar plates. Each plate which was prepared contained 20 ml. of trypticase soy agar (Baltimore Biological Laboratory [BBL]) with 5.0 g./l. of yeast extract (Difco) and 5 percent sterile defibrinated horse blood. The plates were sterile plastic 15 × 100 mm. petri plates. Incubation was carried out at 37° C. for 4 days under anaerobic conditions using the BBL Gas Pak system.
The concentrations of test compounds in this initial test were prepared in dilutions ranging from 2000 mcg./ml. to 7.8 mcg./ml. The test procedure was carried out in the following manner. Five ml. of a twenty-fold concentration in tryptose broth (Difco) of each filter-sterilized test compound dilution was mixed in a series of flasks containing 90 ml. of melted trypticase soy agar with yeast extract. Five ml. of horse blood was then added per flask. The contents of these flasks were then used to prepare a series of blood agar plates in doubling decreasing dilutions ranging from 100 mcg./ml. to 0.39 mcg./ml.
The treponema for inoculation of these plates were obtained by adding 3.0 ml. of sterile tryptose broth to the surface of a plate on which the treponema had been propagated. A sterile cotton-tipped swab was used to loosen the treponema from the agar. […] The inoculum was spread so that it covered the surface of each plate, a bent sterile plastic pipette being used for this purpose for each plate. The plates were incubated at about 36° C. for about 4 days and then examined for growth of the treponema. The minimum inhibitory concentration (MIC) of each test compound was the concentration that prevented growth of treponema.

[9] = 5.0 mg./kg. intraperitoneal, challenge dilution 10^-^4 subcutaneous
[10] = 5.0 mg./kg. intraperitoneal, challenge dilution 10^-^5 subcutaneous
[11] = 5.0 mg./kg. intraperitoneal, challenge dilution 10^-^6 subcutaneous
[12] = challenge dilution 10^-^4 subcutaneous
[13] = challenge dilution 10^-^5 subcutaneous
[14] = challenge dilution 10^-^6 subcutaneous

| Compound | Protective Index (log10 protection) ([1]; 0.5 g./gal. in drinking water) | Protective Index (log10 protection) ([1]; 2.0 g./gal. in drinking water) | MIC [2] [mg/L] | MIC [3] [mg/L] | in vivo activity against Salmonella typhimurium in chicks [4] | responders at 5 mg/kg [5, 9] [%] | responders at 5 mg/kg [5, 10] [%] | responders at 5 mg/kg [5, 11] [%] | in vitro activity against Trichomonas vaginalis [6] | in vivo activity against Trichomonas vaginalis [7] | responders at 2.5 mg/kg [5, 12] [%] | responders at 2.5 mg/kg [5, 13] [%] | responders at 2.5 mg/kg [5, 14] [%] | MIC ([8]; Brachyspira hyodysenteriae, 96 h, blood agar plates, about 36° C., about 4 days, read-out: minimum inhibitory concentration (MIC)) [mg/L] | inhibition of growth of the treponema ([8]; doubling dilutions 100 mcg./ml. to 0.39 mcg./ml.) | Survival ratio (mice surviving / mice tested) [5, 9] | responders at 1.25 mg/kg [5, 12] [%] | responders at 1.25 mg/kg [5, 13] [%] | responders at 1.25 mg/kg [5, 14] [%] |
| --- | --- | --- | --- | --- | --- | --- | --- | --- | --- | --- | --- | --- | --- | --- | --- | --- | --- | --- | --- |
| 5-[2-(Diethylamino)ethyl]-4,5-dihydro-4-imino-1-methyl-3-(1-methyl-5-nitroimidazol-2-yl)-1H-pyrazolo[3,4-d]-pyrimidine disulfate [Example 8i] | > 2.5 | > 2.5 |  |  |  |  |  |  |  |  |  |  |  |  |  |  |  |  |  |
| CCc1nc2c(c(-c3ncc([N+](=O)[O-])n3C)nn2C)c(=O)[nH]1 [Example 2, 6-Ethyl-1,5-dihydro-1-methyl-3-(1-methyl-5-nitroimidazol-2-yl)-4H-pyrazolo[3,4-d]pyrimidin-4-one] |  |  | 50 (≈ 165 µM) | 50 (≈ 165 µM) | active in vivo against Salmonella typhimurium in chicks | 20 | 33.3 | 33.3 |  |  |  |  |  |  |  |  |  |  |  |
| Cn1nc(-c2ncc([N+](=O)[O-])n2C)c2c1NC(CCl)(OC(=O)CCl)NC2=O (centres unmarked) [Example 3, 6-(Chloromethyl)-6,7-dihydro-6-hydroxy-1-methyl-3-(1-methyl-5-nitroimidazol-2-yl)-1H-pyrazolo[3,4-d]pyrimidin-4-(5H)-one, chloroacetate ester] |  |  |  |  |  | 5 | 20 | 25 | active both in vitro and in vivo against Trichomonas vaginalis | active both in vitro and in vivo against Trichomonas vaginalis | 30 | 10 | 20 |  |  |  |  |  |  |
| CN(C)CCn1cnc2c(c(-c3ncc([N+](=O)[O-])n3C)nn2C)c1=N [Example 8, 5-[2-(Dimethylamino)ethyl]4,5-dihydro-4-imino-1-methyl-3-(1-methyl-5-nitroimidazol-2-yl)-1H-pyrazolo[3,4-d]pyrimidine] |  |  | 12.5 (≈ 36.2 µM) | 1.56 (≈ 4.52 µM) | active in vivo against Salmonella typhimurium in chicks |  | 100 | 100 | active both in vitro and in vivo against Trichomonas vaginalis | active both in vitro and in vivo against Trichomonas vaginalis | 40 | 60 | 100 | ≤ 1.56 | inhibited growth of the treponema at each of the levels tested | 10/10 | 20 | 40 | 60 |
| CN(C)CCCn1cnc2c(c(-c3ncc([N+](=O)[O-])n3C)nn2C)c1=N [Example 10, 5-[3-(Dimethylamino)propyl]-4,5-dihydro-4-imino-1-methyl-3-(1-methyl-5-nitroimidazol-2-yl)-1H-pyrazolo[3,4-d]pyrimidine] |  |  |  |  |  | 100 | 80 | 100 | active both in vitro and in vivo against Trichomonas vaginalis | active both in vitro and in vivo against Trichomonas vaginalis |  |  |  |  |  |  |  |  |  |
| Cc1nc2c(c(-c3ncc([N+](=O)[O-])n3C)nn2C)c(=O)[nH]1 [Example 13, 1,5-Dihydro-1,6-dimethyl-3-(1-methyl-5-nitroimidazol-2-yl)-4H-pyrazolo[3,4-d]pyrimidin-4-one] |  |  |  |  | active in vivo against Salmonella typhimurium in chicks | 10 | 50 | 50 |  |  | 20 | 20 | 60 |  |  |  |  |  |  |
